From PMC4626104, “Inhibition on Proteasome β1 Subunit Might Contribute to the Anti-Cancer Effects of Fangchinoline in Human Prostate Cancer Cells” (PLoS ONE, 2015)
Read-outs that look alike come from different tables or passages of the source.

Assays:
[1] = biological target: T1, purified human erythrocyte 20S proteasome (Homo sapiens, UniProt P28072); experiment: C-L activity of purified human 20S proteasome; type: biochemical
T1 construct: purchased Enzo Life Sciences, Inc; host or cells: human erythrocytes
Experimental: The 20S proteasome assay kit was bought from Enzo Life Sciences, Inc. (Farmingdale, NY 11735, USA). The Km, Vmax values of the purified human erythrocyte 20S proteasome for fluorigenic peptide substrate Z-LLE-AMC are measured according to the instructions provided by the manufacturer. Inactivation of purified human erythrocyte 20S proteasome by fangchinoline was determined by monitoring the hydrolysis of substrate in the presence of different concentrations of fangcinoline. Assays were performed at 37°C in a reaction buffer (50 μL) containing 50 mM Tris/HCL, pH 7.5, 25 mM KCL, 10 mM NaCL, 1 mM MgCL2, 0.1 μg 20S proteasome and Z-LLE-AMC. Reactions were allowed to proceed for 120 min, and fluorescence data were collected every 1 min, and then plotted as a function of time. The apparent dissociation constant, Ki ^app, was determined by non-linear least-fit of the fractional velocity, vi/v0, as a function of [I], where vi is the steady state residual activity of the enzyme in the presence of inhibitor (I) and v0 is the initial velocity in the absence of inhibitor ( Vi/V0=1/1+[I]/Kiapp ). The dissociation constant, Ki, was calculated from the apparent dissociation constant, Ki ^app, using the following expression, where [S] is the substrate concentration and Km is the substrate binding constant ( Ki=Kiapp/1+[S]/Km ).

[2] = tested on: LnCap cells; experiment: MTT assay of cell proliferation, LnCap cells; type: cell-based; details: Homo sapiens, read-out: IC50 inhibiting cell proliferation
Experimental: (§1) The inhibitive effects of fangchinoline on proliferation of PC-3 cells or LnCap cells was observed by checking cell viability of cells using MTT assay as described before. Briefly, cells were seeded in 96-well plates at a density of 5×10^4 cells/mL for PC-3 cell and 4×10^4 cells/mL for LnCap cells. After overnight culture, the media were changed into fresh media containing various concentrations of fangchinoline or 0.1% DMSO (solvent control) for 24, 48 h or 72 h. Cell viability was evaluated by measuring the mitochondrial-dependent conversion of the yellow tetrazolium salt MTT to purple formazan crystals by metabolic active cells. The optical density (proportional to the number of live cells) was assessed with a Microplate Reader Bio-Rad 550 at 570 nm. IC50 value (half-maximal inhibitory concentration) was calculated by the Logit method.

[3] = tested on: T2, cellular proteasome of PC-3 cells; experiment: Cellular proteasome activities of PC-3 cells; type: cell-based, human
T2 construct: endogenous in cells; host or cells: PC-3 cells, whole cell extract
Experimental: (§2) Cells were treated with either solvent control (0.1% DMSO), fangchinoline at different concentrations, or 1 μM carfilzomib (positive control) for 24 h at 37 °C. The enzymatic activities of cellular proteasome in cell lysate were measured as reported in our previous paper. Briefly, cells were harvested, washed with PBS and then lysed in proteasome activity assay buffer for 30 min at 4°C. The homogenate was then centrifuged at 12000 × g for 30 min at 4°C. The supernatant was collected as whole cell extract and the protein content in the supernatant was measured with the Bradford reagent. Catalytic activities of cellular proteasome were assayed by adding whole cell extract (containing 30 μg protein) to 100 μL of proteasome activity assay buffer containing 50 μM fluorogenic peptide substrates such as Z-LLE-AMC for detecting C-L activity, Z-ARR-AMC for detecting T-L activity or Suc-LLVY-AMC for detecting CT-L activity, respectively. The release of fluorogenic AMC from the peptide substrates was then measured as described above.

[4] = tested on: PC-3 cells; experiment: MTT assay of cell proliferation, PC-3 cells; type: cell-based; details: Homo sapiens, read-out: IC50 inhibiting cell proliferation
Experimental: as §1

[5] = tested on: T3, cellular proteasome of LnCap cells; experiment: Cellular proteasome activities of LnCap cells; type: cell-based, human; details: 24 h
T3 construct: endogenous in cells; host or cells: LnCap cells, whole cell extract
Experimental: as §2

[6] = biological target: T4, recombinant human proteasome β1 subunit (Homo sapiens, UniProt P28072); experiment: Enzyme activity of recombinant proteasome catalytic β1 subunit (Z-LLE-AMC); type: biochemical; details: 50 μM Z-LLE-AMC, 2 h incubation
T4 construct: His-Tag; made in house; host or cells: Escherichia coli
T4 sequence (P28072 1-239): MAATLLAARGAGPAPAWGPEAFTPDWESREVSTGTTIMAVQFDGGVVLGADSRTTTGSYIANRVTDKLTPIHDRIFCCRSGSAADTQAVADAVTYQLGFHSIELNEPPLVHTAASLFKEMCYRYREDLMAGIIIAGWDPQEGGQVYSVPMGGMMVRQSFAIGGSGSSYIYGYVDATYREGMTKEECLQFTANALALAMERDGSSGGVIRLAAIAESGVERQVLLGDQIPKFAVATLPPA
Experimental: Briefly, catalytic activity of the recombinant human proteasome β1 subunit was assayed by adding recombinant β1 subunit protein (30 μg) to 100 μL of proteasome activity assay buffer (10 mM Tris-HCL, pH 7.8, 5 mM adenosine triphosphate, 0.5 mM dithiothreitol and 5 mM MgCL2•6H2O) containing 50 μM Z-LLE-AMC in the presence of fangchinoline or tetrandrine at different concentrations or not. The hydrolase activity of the proteasome catalytic β1 subunit could release the fluorogenic AMC component from substrate Z-LLE-AMC and the AMC release was measured after 2 h incubation using a Microplate Reader Bio-Rad 550 with excitation and emission wavelengths of 360 and 465 nm, respectively.

COc1ccc2cc1Oc1ccc(cc1)C[C@H]1c3cc(c(OC)cc3CCN1C)Oc1c(O)c(OC)cc3c1[C@H](C2)N(C)CC3 [fangchinoline] was tested. Which “Hydrolysis of substrate Z-LLE-AMC by 20S proteasome” value ([1]; 500 μM fangchinoline, 75 μM Z-LLE-AMC) did it give?
The value was “partly inhibited”.

And the Ki ([1]; substrate Z-LLE-AMC, 37°C)?
The Ki was 357 ± 30.6 µM.

What about the IC50 ([2]; 24 h) of the same compound?
The IC50 was 36.2 ± 6.33 µM.

What about the IC50 ([2]; 48 h) of the same compound?
The IC50 was 11.6 ± 0.22 µM.

And the IC50 ([2]; 72 h)?
The IC50 was 12.7 ± 0.59 µM.

And the “Inhibition of enzyme activity of cellular proteasome β1 subunit” value ([3]; 10 μM, 24 h treatment)?
The value was “about 50%”.

And the “Effect on chymotrypsin-like (CT-L) activity of cellular proteasome” value ([3]; PC-3 cells, 24 h)?
Its value is “not significantly affected”.

What about the “Effect on trypsin-like (T-L) activity of cellular proteasome” value ([3]; PC-3 cells, 24 h) of the same compound?
Its value is “not significantly affected”.

What about the “Inhibition on C-L activity of cellular proteasome” value ([3]; PC-3 cells, 24 h, doses of 1 and 10 μM) of the same compound?
Its value is “significant”.

What about the IC50 ([4]; 24 h) of the same compound?
The IC50 was 27.5 ± 3.35 µM.

And the IC50 ([4]; 48 h)?
Its IC50 is 13.1 ± 1.58 µM.

What about the IC50 ([4]; 72 h) of the same compound?
Its IC50 is 7.25 ± 0.312 µM.

What about the “Effect on CT-L activity of cellular proteasome” value [5] of the same compound?
The value was “did not affect”.

What about the “Effect on T-L activity of cellular proteasome” value [5] of the same compound?
The value was “did not affect”.

What about the “Inhibition of C-L activity of cellular proteasome” value [5] of the same compound?
Its value is “significantly inhibit”.

What about the “Inhibition of enzyme activity of recombinant proteasome β1 subunit” value [6] of the same compound?
The value was “dose-dependently inhibited”.
